Patent US20100267795A1, “NITROSUBSTITUTED ARYLOXYALKYLIMIDAZOLINES FOR USE AS PESTICIDES” (SYNGENTA CROP PROTECTION, INC., priority 2007, published 2010)

Legend:
Assay type in all cases: in vivo
[1] = tested on: Myzus persicae (green peach aphid); test: Myzus persicae (green peach aphid) sunflower leaf disc spray test; settings: for control (mortality): 200 ppm spray on sunflower leaf discs, aphid population of mixed ages, 6 DAT; for mortality at 200 ppm: Myzus persicae, foliar, 144 h, read-out: control (mortality)
Method: Sunflower leaf discs were placed on agar in a 24-well microtiter plate and sprayed with test solutions at an application rate of 200 ppm. After drying, the leaf discs were infested with an aphid population of mixed ages. After an incubation period of 6 DAT, samples were checked for mortality. The following compounds gave 100% control: 1.001, 1.002, 1.003, 1.004, 1.005, 1.006, 1.008, 1.009, 1.012, 1.013, 1.014, 1.016, 1.017 and 1.018. The following compounds gave 80% control: 1.007 and 1.011. The following compound gave 50% control: 1.010

[2] = tested on: Tetranychus urticae (two-spotted spider mite); test: Tetranychus urticae (two-spotted spider mite) bean leaf disc spray test; settings: for mortality at 200 ppm: Tetranychus urticae, foliar, 192 h, read-out: control (egg mortality, larval mortality, adult mortality)
Source text: Bean leaf discs on agar in 24-well microtiter plates wer sprayed with test solutions at an application rate of 200 ppm. After drying, the leaf discs are infested with mite populations of mixed ages. 8 days later, discs are checked for egg mortality, larval mortality, and adult mortality. The following compounds gave 100% control: 1.001, 1.002, 1.003, 1.004, 1.006, 1.008, 1.009, 1.010, 1.012, 1.013, 1.014, 1.016, 1.017 and 1.018. The following compound gave 50% control: 1.011.

[3] = tested on: Myzus persicae (green peach aphid); test: Myzus persicae (green peach aphid) pea seedling root uptake test; settings: for control (mortality): 24 ppm test solution, roots of infested pea seedlings, 6 days after introduction; for mortality at 24 ppm: Myzus persicae, 144 h, read-out: control (mortality)
Source text: Roots of pea seedlings, infested with an aphid population of mixed ages, were placed directly in the test solutions of 24 ppm. 6 days after introduction, samples were checked for mortality. The following compounds gave 100% control: 1.004 and 1.012. The following compounds gave 80% control: 1.001, 1.002, 1.009, 1.013 and 1.016. The following compound gave 50% control: 1.003.

[4] = tested on: Heliothis virescens (tobacco budworm); test: Heliothis virescens (tobacco budworm) egg/larva test on artificial diet; settings: for control (egg mortality, larval mortality, growth regulation): 200 ppm by pipetting, eggs 0-24 h old on artificial diet, 4 days incubation; for mortality at 200 ppm: Heliothis virescens, read-out: control (egg mortality, larval mortality, growth regulation)
Method: Eggs (0-24 h old) were placed in 24-well microtiter plate on artificial diet and treated with test solutions at an application rate of 200 ppm by pipetting. After an incubation period of 4 days, samples were checked for egg mortality, larval mortality, and growth regulation. The following compounds gave 100% control: 1.003 and 1.009. The following compounds gave 80% control: 1.001, 1.004, 1.005, 1.008 and 1.016. The following compounds gave 50% control: 1.013 and 1.017.

## CCC(Oc1cccc([N+](=O)[O-])c1Cl)C1=NCCN1C(=O)OC(C)(C)C (stereo not drawn) [Compound 1.011]
[1]
  control (mortality): 80%
[2]; 200 ppm spray on bean leaf discs, mite populations of mixed ages, 8 days
  control (egg mortality, larval mortality, adult mortality): 50%

## CCCC(Oc1cccc([N+](=O)[O-])c1Cl)C1=NCCN1 (stereo not drawn) [Compound 1.009]
[3]
  control (mortality): 80%
[4]
  control (egg mortality, larval mortality, growth regulation): 100%

## COCC(Oc1cccc([N+](=O)[O-])c1C)C1=NCCN1 (stereo not drawn) [Compound 1.012, 2-[2-Methoxy-1-(2-methyl-3-nitro-phenoxy)-ethyl]-4,5-dihydro-1H-imidazole]
[3]
  mortality at 24 ppm: 100%
[1]
  mortality at 200 ppm: 100%
[2]
  mortality at 200 ppm: 100%

## COCC(Oc1cccc([N+](=O)[O-])c1Cl)C1=NCCN1 (stereo not drawn) [Compound 1.017]
[4]
  control (egg mortality, larval mortality, growth regulation): 50%

## Cc1c(OC(C2=NCCN2)C(C)C)cccc1[N+](=O)[O-] (stereo not drawn) [Compound 1.002]
[3]
  control (mortality): 80%

## CCC(Oc1cccc([N+](=O)[O-])c1C)C1=NCCN1 (stereo not drawn) [Compound 1.001]
[3]
  control (mortality): 80%
[4]
  control (egg mortality, larval mortality, growth regulation): 80%

## CCCC(Oc1cccc([N+](=O)[O-])c1Cl)C1=NCCN1C(=O)OC(C)(C)C (stereo not drawn) [Compound 1.010]
[1]
  control (mortality): 50%

## CCCCC(Oc1cccc([N+](=O)[O-])c1C)C1=NCCN1 (stereo not drawn) [Compound 1.005]
[4]
  control (egg mortality, larval mortality, growth regulation): 80%

## Cc1c(OC(C2=NCCN2)C2CC2)cccc1[N+](=O)[O-] (stereo not drawn) [Compound 1.003]
[3]
  control (mortality): 50%
[4]
  control (egg mortality, larval mortality, growth regulation): 100%

## CCC(Oc1cccc([N+](=O)[O-])c1C)C1=NCCN1C(=O)OC(C)(C)C (stereo not drawn) [Compound 1.007]
[1]
  control (mortality): 80%

## CCC(Oc1cccc([N+](=O)[O-])c1Cl)C1=NCCN1 (stereo not drawn) [Compound 1.008, 2-[1-(2-Chloro-3-nitro-phenoxy)-propyl]-4,5-dihydro-1H-imidazole]
[4]
  mortality at 200 ppm: 80%
[1]
  mortality at 200 ppm: 100%
[2]
  mortality at 200 ppm: 100%

## C=CCC(Oc1cccc([N+](=O)[O-])c1C)C1=NCCN1 (stereo not drawn) [Compound 1.013]
[3]
  control (mortality): 80%
[4]
  control (egg mortality, larval mortality, growth regulation): 50%

## C=CCC(Oc1cccc([N+](=O)[O-])c1Cl)C1=NCCN1 (stereo not drawn) [Compound 1.016, 2-[1-(2-Chloro-3-nitro-phenoxy)-but-3-enyl]-4,5-dihydro-1H-imidazole]
[3]
  mortality at 24 ppm: 80%
[4]
  mortality at 200 ppm: 80%
[1]
  mortality at 200 ppm: 100%
[2]
  mortality at 200 ppm: 100%

## CCCC(Oc1cccc([N+](=O)[O-])c1C)C1=NCCN1 (stereo not drawn) [Compound 1.004]
[3]
  control (mortality): 100%
[4]
  control (egg mortality, larval mortality, growth regulation): 80%
